# Data taken from patent publication US9079863B2, “Crystalline forms for 5-amino-2,3-dihydrophthalazine-1,4-dione sodium salt, pharmaceutical preparations containing the same and method for the production of said forms” (METRIOPHARM AG, priority 2010, dated 2015).
# Where a name gives a salt, the structure may show the parent alone. Read-outs that look alike come from different tables or passages of the source.
# Tests used:
# [1] = healthy mice
# Experimental: (§1) In a mouse model of the Gram-positive sepsis (infection with S. pyogenes) the therapeutic usability of the crystal forms I and II of the 5-amino-2,3-dihydrophthalazine-1,4-dione sodium salt was tested. The administration of active ingredient was made parenterally 6 hours after the infection occurred. A second administration of active ingredient was made 24 hours after the first application. The test was completed 48 hours after the infection. For both forms (substance groups) three different doses were used. The mice obtained 2, 20 or 200 μg each of form I or form II per animal and application.
# Blood taking occurred after 48 hours at the end of the second application day.
# S. pyogenes [2] = details: 48 hours after the infection
# Experimental: as §1
# (§2) The individual treatment groups comprised 5 animals each, and for the not infected controls two repetitions and for the infected controls and that groups that contained form II four repetitions were made, so that in total 180 animals were in the test.
# In the sepsis model described in Example 3, the influence the crystal forms II and I of the 5-amino-2,3-dihydrophthalazine-1,4-dione sodium, salt on the probability of survival of the mice infected with S. pyogenes was tested.
# [3] = 0.25 g in 10 mL H2O VE, stirring 500 rpm, 25° C., first minutes after addition; sodium salt
# Experimental: The complete dissolution of 0.25 g form I or form II, respectively, in 10 mL H2O VE was achieved under stirring (500 rpm) at 25° C.
# S. pyogenes [4] = details: for Germ load (CFU) Blood MW / Germ load (CFU) Liver MW: 48 hours after the infection, sodium salt
# Experimental: as §1, §2
# In the sepsis model described in Example 3, the influence of crystal forms II and I of the 5-amino-2,3-dihydrophthalazine-1,4-dione sodium salt on the germ load of the mice infected with S. pyogenes in blood and liver was tested. The test was completed 48 hours after the infection, and the germ load (CFU) existing at this time in blood and liver was determined (see Table).
# physchem = details: saturated solution
# Experimental: Further, the solubility of the crystalline forms in a saturated solution was determined.
# [5] = for Disintegration temperature: 30-500° C. in synthetic air (4 N2: 1 O2), sodium salt
# Experimental: (Table 5). The solid phase transformation of the dihydrate according to U.S. Pat. No. 6,483,326 B1 was measured by means of the simultaneous thermogravimetry-differential thermal analysis with a Linseis L81-077 coupled with mass spectroscopy measurement with a Netzsch STA 449 C thermobalance, with MS and FTIR coupling at 30-300° C. under helium. The disintegration temperatures of forms I-II were determined with the same device at 30-500° C. in synthetic air (4 N2: 1 O2). The data were analyzed with the factory-set software Proteus.
# [6] = tested on: isolated mouse bone marrow macrophages
# Experimental: For this purpose, isolated mouse bone marrow macrophages were first treated with form II in concentrations of 2, 20 or 200 μg/mL and stimulated 1 h after treatment with 100 ng/mL or 10 ng/mL LPS. The supernatants were collected 24 h later, and the concentration of TNF-alpha and IL-6 was measured. Not stimulated macrophages, not stimulated macrophages treated with 200 μg/mL form II and LPS-stimulated macrophages (10 or 100 ng/mL LPS) were used as controls.
# [7] = not infected mice; for Weight development/increase MW: over two days
# Experimental: as §1, §2
# It is known that the toxicity of substances in an animal test with growing-up mice or rate can influence the weight development.
# [8] = healthy mice, end of the second application day
# From the text: When administering form I and form II to healthy mice, it was investigated, whether and which influence the application has on certain liver enzymes, in particular the transaminases GOT (AST) and GPT (ALT). Blood taking occurred at the end of the second application day.
# [9] = tested on: stimulated murine macrophages; details: 1 μg/mL LPS with 100 μg/mL
# Experimental: These were measured in the combination of 2 μg/mL active ingredient with macrophages stimulated with 100 ng/mL LPS as well as in the group of the macrophages stimulated with 10 ng/mL in the active ingredient concentration with 20 μg/mL.
# S. pyogenes [10] = details: infected mice, sodium salt; for Weight development/increase Total MW: complete test time 48 h, survivors
# Experimental: as §1, §2
# In the sepsis model described in Example 3, the influence of crystal forms I and II of the 5-amino-2,3-dihydrophthalazine-1,4-dione sodium salt on the weight development of mice infected with S. pyogenes was tested. The development of the body weight during an acute infection may supply important predictive information.
# S. pyogenes [11] = details: 48 hours after the infection; remark: listed apart in the source
# Experimental: as §1
# [12] = dose 2 μg, LPS 10 ng/mL, supernatant 24 h
# [13] = dose 2 μg, LPS 100 ng/mL, supernatant 24 h
# [14] = dose 20 μg, LPS 10 ng/mL, supernatant 24 h
# [15] = dose 20 μg, LPS 100 ng/mL, supernatant 24 h
# [16] = dose 200 μg, LPS 10 ng/mL, supernatant 24 h
# [17] = dose 200 μg, LPS 100 ng/mL, supernatant 24 h
# [18] = dose 200 μg, not stimulated (no LPS)
compound,measurement,setting,value
"Nc1cccc2c(=O)[nH][nH]c(=O)c12 [Form II, 5-amino-2,3-dihydrophthalazine-1,4-dione sodium salt]",TNF-alpha MW,"[1]; 2 μg, blood after 48 hours, sodium salt",0.0 pg/mL
same,TNF-alpha MW,"[1]; 20 μg, blood after 48 hours, sodium salt",0.0 pg/mL
same,TNF-alpha MW,"[1]; 200 μg, blood after 48 hours, sodium salt",16.94 pg/mL
same,TNF-alpha MW,"[1]; all doses (total), blood after 48 hours, sodium salt",5.65 pg/mL
same,IL-6 increase,[1]; blood after 48 hours,neither in the substance groups nor in the control groups increases could be found
same,TNF-alpha increase,"[1]; compared to the other groups, sodium salt",do not cause a relevant increase
same,Share of surviving mice,"S. pyogenes [2]; 2 μg, sodium salt",90%
same,Share of surviving mice,S. pyogenes [2]; 20 μg,80%
same,Share of surviving mice,"S. pyogenes [2]; 200 μg, sodium salt",70%
same,Survival compared to the controls,S. pyogenes [2],increase of the share of surviving animals
same,Share of surviving mice,S. pyogenes [2]; all doses (total),80%
same,Initial dissolution rate,[3],higher than that of form I
same,Germ load (CFU) Blood MW,S. pyogenes [4]; 2 μg,5.96 log/mL
same,Germ load (CFU) Liver MW,S. pyogenes [4]; 2 μg,6.13 log/g
same,Germ load (CFU) Blood MW,S. pyogenes [4]; 20 μg,5.88 log/mL
same,Germ load (CFU) Liver MW,S. pyogenes [4]; 20 μg,6.79 log/g
same,Germ load (CFU) Blood MW,S. pyogenes [4]; 200 μg,5.54 log/mL
same,Germ load (CFU) Liver MW,S. pyogenes [4]; 200 μg,6.14 log/g
same,Germ load (CFU) Blood MW,S. pyogenes [4]; all doses (total),5.80 log/mL
same,Germ load (CFU) Liver MW,S. pyogenes [4]; all doses (total),6.36 log/g
same,Germ count in the blood compared to the controls,S. pyogenes [4]; highest dose,tendentious germ count reduction
same,Solubility,"physchem; in water at room temperature, sodium salt",252 mg/mL
same,Solubility in comparison,physchem,more soluble than form I
same,Disintegration temperature,[5]; listed as form II,385 °C
same,Disintegration temperature,[5],385 °C ± 10 °C
same,Time for which the crystalline form is stable,[5]; room temperature (25° C.) and 40° C.,at least two
same,Change of TNF-alpha,"[6]; 10 ng/mL LPS, 200 μg/mL",significant reduction
same,Change of TNF-alpha concentration,"[6]; 100 ng/mL LPS, all active ingredient concentrations",significant reduction
same,Change of IL-6 values,[6]; 2 μg/mL with 100 ng/mL LPS,significant reductions
same,Change of IL-6 values,[6]; 20 μg/mL with 10 ng/mL LPS,significant reductions
same,IL-6 MW,[6]; [12],3.93 ng/mL
same,TNF-alpha MW,[6]; [12],8.38 ng/mL
same,IL-6 MW,[6]; [13],2.67 ng/mL
same,TNF-alpha MW,[6]; [13],7.40 ng/mL
same,IL-6 MW,[6]; [14],1.61 ng/mL
same,TNF-alpha MW,[6]; [14],9.80 ng/mL
same,IL-6 MW,[6]; [15],4.28 ng/mL
same,TNF-alpha MW,[6]; [15],9.06 ng/mL
same,IL-6 MW,[6]; [16],3.42 ng/mL
same,TNF-alpha MW,[6]; [16],6.76 ng/mL
same,IL-6 MW,[6]; [17],4.00 ng/mL
same,TNF-alpha MW,[6]; [17],7.69 ng/mL
same,IL-6 MW,[6]; [18],0.00 ng/mL
same,TNF-alpha MW,[6]; [18],0.00 ng/mL
same,Immunostimulating effect on not LPS-induced macrophages,[6]; not LPS-induced,could not be shown
same,Toxicity judged from weight development,[7],do not have any toxicity or at most a very small one
same,Weight development/increase MW,"[7]; 2 μg per animal and application, parenteral, sodium salt",-0.14 g
same,Weight development/increase MW,"[7]; 20 μg per animal and application, parenteral, sodium salt",1.43 g
same,Weight development/increase MW,"[7]; 200 μg per animal and application, parenteral, sodium salt",0.50 g
same,Weight development/increase MW,[7]; all doses (total),0.59 g
same,Transaminases GOT (AST) and GPT (ALT),[8],Distinct differences between the groups could not be found
same,Effect on IL-6 values,[9],immunodepressive effect
same,Weight development/increase Total MW,S. pyogenes [10]; 2 μg,-2.02 g
same,Weight development/increase Day 1 MW,S. pyogenes [10]; 2 μg,-0.57 g
same,Weight development/increase Total MW,S. pyogenes [10]; 20 μg,-1.69 g
same,Weight development/increase Day 1 MW,S. pyogenes [10]; 20 μg,-0.55 g
same,Weight development/increase Total MW,S. pyogenes [10]; 200 μg,-1.86 g
same,Weight development/increase Day 1 MW,S. pyogenes [10]; 200 μg,-0.72 g
same,Weight development/increase Total MW,S. pyogenes [10]; all doses (total),-1.86 g
same,Weight development/increase Day 1 MW,S. pyogenes [10]; all doses (total),-0.62 g
same,IL-6 in infected mice,S. pyogenes [11]; not confirmed in all repetitions,in part distinct tendencies of an IL-6 reduction
same,Liver enzyme values GOT (AST) and GPT (ALT),"S. pyogenes [11]; infected mice, some repetitions only",tendencies to reduce the liver enzyme values
